From patent US12473350B2, “Recombinant humanized type III collagen microsphere with innovative spatial structure, and design, preparation process and usethereof” (Nanjing Tzone Biotechnology Co., Ltd., priority 2023, dated 2025)

Tested on: Human skin fibroblasts (HSF cells)
Test: MTT assay, effect on HSF cell growth
Assay type: cell-based
Settings: 10% DMSO
Procedure: Dimethyl sulfoxide (DMSO) can dissolve formazan in cells, and its light absorption value can be measured at a wavelength of […] using an enzyme-linked immunosorbent assay, which can indirectly reflect the number of live cells. Within a certain range of cell numbers, the amount of MTT crystals formed is proportional to the number of cells.
Logarithmic phase cells are collected and the cell suspension concentration is adjusted. 100 μL of cell suspension is added per well and plated to adjust the density of the cells to be tested to 10,000 cells/well, and the edge wells are filled with sterile PBS. The cells are incubated under 5% CO2 at 37° C. until the cell monolayer spreads over all the bottom of the wells. Then, the drug in a concentration gradient is added; in principle, the drug can be added once the cells have adhered, with five parallel settings. The incubation is performed under 5% CO2 at 37° C. for 24 h or 48 h and the cells are observed under an inverted microscope. 20 μL of MTT solution (5 mg/mL, i.e., 0.5% MTT) is added to each well and the incubation is continued for 4 h. […] The light absorption value of each well is measured at […] using an Enzyme-Linked Immunosorbent Assay (ELISA) reader. […]

Which “RGR (24 h)” value (24 h) does the source give for C[S+](C)[O-] [DMSO, Dimethyl Sulfoxide, reference compound] here?
Its value is 28.20%.

What about the “RGR (48 h)” value (48 h) of the same compound?
Its value is 17.15%.
